Experimental data from patent publication US7999107B2, “Substituted pyrano[2,3-B]pyridine derivatives as cannabinoid-1 receptor modulators” (Merck Sharp & Dohme Corp., priority 2007, dated 2011).
Read-outs that look alike come from different tables or passages of the source.

Columns and labels:
[1] = molecular target: T1, recombinant human CB1 receptor (Homo sapiens, UniProt P21554); test: Cannabinoid Receptor-1 (CB1) Binding Assay
T1 construct: expressed in transfected cells; host or cells: CHO cells (membranes)
Method: Binding affinity determination is based on recombinant human CB1 receptor expressed in Chinese Hamster Ovary (CHO) cells (Felder et al, Mol. Pharmacol. 48: 443-450, 1995). Total assay volume is 250 μl (240 μl CB1 receptor membrane solution plus 5 μl test compound solution plus 5 μl [3H]CP-55940 solution). Final concentration of [3H]CP-55940 is 0.6 nM. Binding buffer contains 50 mM Tris-HCl, pH7.4, 2.5 mM EDTA, 5 mM MgCl2, 0.5 mg/mL fatty acid free bovine serum albumin and protease inhibitors (Cat#P8340, from Sigma). To initiate the binding reaction, 5 μl of radioligand solution is added, the mixture is incubated with gentle shaking on a shaker for 1.5 h at 30° C. The binding is terminated by using 96-well harvester and filtering through GF/C filter presoaked in 0.05% polyethylenimine. The bound radiolabel is quantitated using scintillation counter. Apparent binding affinities for various compounds are calculated from IC50 values (DeBlasi et al., Trends Pharmacol Sci 10: 227-229, 1989).

[2] = molecular target: T2, recombinant human CB1 receptor expressed in CHO cells (Homo sapiens, UniProt P21554); test: Cannabinoid Receptor-1 (CB1) Functional Activity Assay (cAMP); assay type: cell-based; details: forskolin-stimulated cAMP
Method: The functional activation of CB1 receptor is based on recombinant human CB1 receptor expressed in CHO cells (Felder et al, Mol. Pharmacol. 48: 443-450, 1995). To determine the agonist activity or inverse agonist activity of any test compound, 50 ul of CB1-CHO cell suspension are mixed with test compound and 70 ul assay buffer containing 0.34 mM 3-isobutyl-1-methylxanthine and 5.1 uM of forskolin in 96-well plates. The assay buffer is comprised of Earle's Balanced Salt Solution supplemented with 5 mM MgCl2, 1 mM glutamine, 10 mM HEPES, and 1 mg/mL bovine serum albumin. The mixture is incubated at room temperature for 30 minutes, and terminated by adding 30 ul/well of 0.5M HCl. The total intracellular cAMP level is quantitated using the New England Nuclear Flashplate and cAMP radioimmunoassay kit.

[3] = molecular target: T2, recombinant human CB1 receptor expressed in CHO cells; test: Cannabinoid Receptor-1 (CB1) Functional Antagonist Assay; assay type: cell-based; details: cAMP
Method: To determine the antagonist activity of test compound, the reaction mixture also contains 0.5 nM of the agonist CP55940 (or 50 nM of methanandamide), and the reversal of the CP55940 (or methanandamide) effect is quantitated with increasing concentration of the test compound. Intracellular cAMP is determined as described above. An IC50 value for the test compound is calculated from the titration curve.
Alternatively, a series of dose response curves for the agonist CP55940 (or methanandamide) is performed with increasing concentration of the test compound in each of the dose response curves, and a Schild analysis is carried to calculate the Kb value which is an estimation of test compound binding affinity.

[4] = [3H]CP-55940 0.6 nM, CHO cell membranes, read-out: CB1 binding IC50

T2 sequence (P21554 whole entry): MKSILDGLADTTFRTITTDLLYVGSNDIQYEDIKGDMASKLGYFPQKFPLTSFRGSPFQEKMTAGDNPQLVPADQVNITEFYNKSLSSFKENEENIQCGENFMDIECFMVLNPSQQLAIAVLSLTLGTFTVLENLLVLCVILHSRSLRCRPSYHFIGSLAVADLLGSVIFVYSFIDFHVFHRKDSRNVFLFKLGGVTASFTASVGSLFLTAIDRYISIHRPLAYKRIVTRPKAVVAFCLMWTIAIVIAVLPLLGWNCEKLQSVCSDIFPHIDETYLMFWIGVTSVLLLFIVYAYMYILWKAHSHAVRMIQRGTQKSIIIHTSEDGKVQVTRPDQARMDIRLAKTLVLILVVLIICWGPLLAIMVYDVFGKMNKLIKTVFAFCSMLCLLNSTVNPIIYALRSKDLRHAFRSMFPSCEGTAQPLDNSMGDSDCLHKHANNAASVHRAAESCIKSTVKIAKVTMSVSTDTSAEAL
T1 sequence (P21554 whole entry): as above

Structure (SMILES) | IC50 [1] | EC50 [2] | functional character at CB1 [3] | IC50 [1, 4]
O=C1CC2(CCCCC2)Oc2nc(-c3ccccc3Cl)c(-c3ccc(Cl)cc3)cc21 [Example 4, 7′-(2-Chlorophenyl)-6′-(4-chlorophenyl)spiro[cyclohexane-1,2′-pyrano[2,3-b]pyridin]-4′(3′H)-one] | 8 nM | < 20 nM | functional inverse agonists | 
C[C@@H](O)C(=O)NC1CC(C)(C)Oc2nc(-c3ccc(Cl)cc3Cl)c(-c3ccc(Cl)cc3)cc21 (stereo partly drawn) [Example 96, (2R)-N-[6-(4-chlorophenyl)-7-(2,4-dichlorophenyl)-2,2-dimethyl-3,4-dihydro-2H-pyrano[2,3-b]pyridin-4-yl]-2-hydroxypropanamide] |  |  | functional inverse agonists | 
CN(C)C(=O)NC1CC(C)(C)Oc2nc(-c3ccc(Cl)cc3Cl)c(-c3ccc(Cl)cc3)cc21 (centres unmarked) [Example 111, N′-[6-(4-chlorophenyl)-7-(2,4-dichlorophenyl)-2,2-dimethyl-3,4-dihydro-2H-pyrano[2,3-b]pyridin-4-yl]-N,N-dimethylurea] |  | < 20 nM | functional inverse agonists | 2 nM
Cc1cc(C(=O)N[C@@H]2CC(C)(C)Oc3nc(-c4ccc(Cl)cc4Cl)c(-c4ccc(Cl)cc4)cc32)n[nH]1 [Example 327, N-[(4R)-6-(4-Chlorophenyl)-7-(2,4-dichlorophenyl)-2,2-dimethyl-3,4-dihydro-2H-pyrano[2,3-b]pyridin-4-yl]-5-methyl-1H-pyrazole-3-carboxamide] |  |  | functional inverse agonists | 
CC(C)(C)C1CC(=O)c2cc(-c3ccc(Cl)cc3)c(-c3ccccc3Cl)nc2O1 (centres unmarked) [Example 12, 2-tert-Butyl-7-(2-chlorophenyl)-6-(4-chlorophenyl)-2,3-dihydro-4H-pyrano[2,3-b]pyridin-4-one] |  | < 20 nM | functional inverse agonists | 2 nM
CNC(=O)C(=O)NC1CC(C)(C)Oc2nc(-c3ccc(Cl)cc3Cl)c(-c3ccc(Cl)cc3)cc21 (centres unmarked) [Example 66, N-[6-(4-Chlorophenyl)-7-(2,4-dichlorophenyl)-2,2-dimethyl-3,4-dihydro-2H-pyrano[2,3-b]pyridin-4-yl]-N′-methylethanediamide] |  | < 20 nM | functional inverse agonists | 2 nM
CC1(C)CC(Nc2ccccn2)c2cc(-c3ccc(Cl)cc3)c(-c3ccc(Cl)cc3Cl)nc2O1 (centres unmarked) [Example 245, 6-(4-Chlorophenyl)-7-(2,4-dichlorophenyl)-2,2-dimethyl-N-(pyridine-2-yl)-3,4-dihydro-2H-pyrano[2,3-b]pyridin-4-amine] |  | < 20 nM | functional inverse agonists | 2 nM
Cc1cc(NC2CC(C)(C)Oc3nc(-c4ccc(Cl)cc4Cl)c(-c4ccc(Cl)cc4)cc32)n[nH]1 (centres unmarked) [Example 246, 6-(4-Chlorophenyl)-7-(2,4-dichlorophenyl)-2,2-dimethyl-N-(5-methyl-1H-pyrazol-3-yl)-3,4-dihydro-2H-pyrano[2,3-b]pyridin-4-amine] |  | < 20 nM | functional inverse agonists | 10 nM
